From patent US20050003422A1, “Methods for assessing and treating cancer” (priority 2003, published 2005)

Test system: AML patients
Assay: Clinical response of relapsed or refractory AML patients treated with the FTI
Format: in vivo, human
Settings: of a total of 199 evaluable AML patients; 600 mg b.i.d. oral, first 21 days of each 28 day cycle
Procedure: In the nonprophetic examples, AML patients were administered 600 mg of (R)-6-[amino(4-chlorophenyl)(1-methyl-1H-imidazol-5-yl)methyl]-4-(3-chlorophenyl)-1-methyl-2(1H)-quinolinone) (referred to as Zamestra™) at a starting oral dose of 600 mg b.i.d. for the first 21 days of each 28 day cycle in AML. Subjects were enrolled into two cohorts, those with relapsed AML and those with refractory AML. A total of […] patients (135 relapsed and 117 refractory) were treated.
Anti-leukemic activity is defined as any bone marrow blast count less than 5% or a reduction in bone marrow blasts by at least half.
The average value of the site and DCL blast count measurements were calculated and a Student's t-test was performed to investigate if blast counts correlated with patient response in the AML patients. […] Chi-squared analysis for all evaluable patients also found a significant correlation between high blast counts and resistance to treatment (Ω^2=9.53).

Cn1cncc1[C@@](N)(c1ccc(Cl)cc1)c1ccc2c(c1)c(-c1cccc(Cl)c1)cc(=O)n2C [Zamestra] was tested, and the “evaluable patients who had a CR, CRp, PR, or SD” value was 24.
